# Assay results: US10947503B2, “Method for modifying T cell population” (International Institute of Cancer Immunology, Inc., priority 2014, dated 2021)
# Assays:
# [1] = test system: human CD4+CD45RO+ T cells; assay: Modulation of T cell differentiation by RAR agonists and antagonists; assay type: cell-based; conditions: 8 days culture, vs DMSO
# Excerpt: Human CD4^+CD45RO^+ T cells were stimulated with an anti-CD3/CD28 antibody and IL-2, and cultured in the presence of DMSO as a control, or various RAR agonists (FIG. 30) or RAR antagonists (FIG. 31) for 8 days.
# [2] = test system: human CD4+CD45RO+ T cells; assay: Enhancement of T cell differentiation by retinoic acid; assay type: cell-based; conditions: vs DMSO; stimulation with IL-2, anti-CD3/CD28 antibody, or both
# Excerpt: Human CD4^+CD45RO^+ T cells were stimulated by various methods (IL-2, anti-CD3/CD28 antibody, and anti-CD3/CD28 antibody and IL2), and cultured in the presence of DMSO (control) or all-trans retinoic acid (hereinafter retinoic acid used in all Examples described below is all-trans retinoic acid). As a result, in the cell population cultured in the presence of retinoic acid, the proportion of central memory cells (upper right in a graph) was decreased, and the proportion of terminal effector cells (left lower in a graph) was increased (FIG. 19).
# [3] = test system: human CD4+CD45RO+ T cells; assay: Ability to form memory T cell population after re-stimulation; assay type: cell-based; conditions: 8 days culture, re-stimulated and cultured for 7 days
# Excerpt: Human CD4^+CD45RO^+ T cells were stimulated with an anti-CD3/CD28 antibody, cultured in the presence of DMSO (control), retinoic acid or an RAR antagonist (LE540) for 8 days, and re-stimulated and cultured with an anti-CD3/CD28 antibody and IL-2, or IL-7 for 7 days. The subsets of the T cells were identified.
# [4] = test system: Tumor cells expressing both WT1 protein and luciferase; assay: Anti-tumor immunity induction with human WT1 peptide and RAR antagonist in NOG mice; assay type: in vivo, mouse; conditions: for survival period: intraperitoneal, compared with control (DMSO)
# Protocol: Tumor cells expressing both WT1 protein and luciferase were subcutaneously implanted into a ventral part of NOD/Shi-scid, IL-2Rγnull mice (NOG mice). Three days after the implantation, 10^4 human WT1332-specific CD4^+ T cells (GPP positive) were injected intravenously (day 0). Eight hours after the intravenous injection, DMSO (control), retinoic acid or LE540 was administered intraperitoneally. One day after the intravenous injection, CD3^+ T cells were removed, and 2×10^6 human peripheral blood mononuclear cells which had been pulsed with the human WT1332 peptide were injected intravenously (day 1). Then, a survival period was observed. In addition, the amount of tumor was determined every week by administering luciferin which was a substrate for luciferase and measuring the intensity of emission induced by luciferase from outside the body.
# [5] = test system: human CD4+CD45RO+ T cells; assay: Division ability and proliferation ability of memory T cells after re-stimulation; assay type: cell-based; conditions: 8 days culture, re-stimulated with anti-CD3/CD28 antibody and IL-2, or IL-7
# Protocol: Human CD4^+CD45RO^+ T cells were stimulated with an anti-CD3/CD28 antibody, cultured in the presence of DMSO (control), retinoic acid or an RAR antagonist (LE540) for 8 days, re-stimulated with an anti-CD3/CD28 antibody and IL-2, or IL-7, and cultured. The division ability and proliferation ability of the T cells were evaluated. For evaluation of the division ability, Cell Trace (trade name) Violet Cell Proliferation Kit (manufactured by Life Technologies) was used. As a result, when the differentiation of T cells was enhanced by retinoic acid, both the division ability and the proliferation ability were decreased, whereas when the differentiation was suppressed by the RAR antagonist, both the division ability and the proliferation ability were increased (FIG. 21).
# [6] = test system: human CD4+CD45RO+ T cells; assay: Resistance to apoptosis after anti-Fas antibody (7C11) stimulation; assay type: cell-based; conditions: 8 days culture, then anti-Fas antibody
# Protocol: Human CD4^+CD45RO^+ T cells were cultured in the presence of DMSO (control), retinoic acid or an RAR antagonist (LE540) for 8 days, and then stimulated with an anti-Fas antibody (7C11). The proportion of apoptotic cells and the proportion of living cells were determined and analyzed. As a result, the apoptotic cells were increased and the living cells were decreased by enhancing the differentiation of cells by retinoic acid. In contrast, when the differentiation was suppressed by the RAR antagonist, the apoptotic cells were decreased and the living cells were increased (FIG. 20).
# [7] = test system: human CD4+CD45RO+ T cells; assay: Suppression of RDH10 expression by shRNA: composition of T cell population; assay type: cell-based; conditions: compared with T cell population expressing control shRNA
# Excerpt: A construct to express an shRNA targeting retinol dehydrogenase 10 and consisting of a sequence set forth in SEQ ID NO:18 (RDH10-targeting shRNA) was introduced into human CD4^+CD45RO^+ T cells. Specifically, using a lentivirus vector system, packaging cells (293T cell line) were co-transfected with a vector in which a DNA consisting of a nucleotide sequence of SEQ ID NO:19 was incorporated into a cloning site and a packaging vector to produce a recombinant virus, and the human CD4^+CD45RO^+ T cells were infected with the recombinant virus. Integration of the shRNA expression construct into a chromosome was confirmed based on the expression of GFP as a reporter which was located downstream of the shRNA expression construct. In the T cell population in which the RDH10-targeting shRNA was expressed by such a method, the proportion of terminal effector cells ([…]) was decreased and the proportion of central memory cells (CD127^+, CD62L^+) was increased, as compared with a T cell population in which a control shRNA (SEQ ID NO:20) was expressed by the same method (FIG. 2).
# [8] = test system: human CD4+CD45RO+ T cells; assay: Culture with anti-CD3, anti-CD28, IL-2 and retinol for a week: cell number and intracellular cytokine assay (IFN-γ); assay type: cell-based; conditions: various concentrations of retinol, one week; retinol concentration-dependent
# Protocol: The RDH10-targeting shRNA (sh #10-2, SEQ ID NO:18), or an shRNA targeting luciferase (sh-luc, SEQ ID NO:20) as a control was introduced into human CD4^+CD45RO^+ T cells using a lentivirus vector. In the same way, a lentivirus vector in which an RDH10 gene was incorporated was introduced into human CD4^+CD45RO^+ T cells to produce RDH10 high-expression T cells.
# These cells were cultured in the presence of an anti-CD3 antibody, an anti-CD28 antibody and IL-2 together with various concentrations of retinol (all-trans type) for a week. Then, the number of cells was measured and at the same time, the frequency of cells producing IFN-γ was determined by an intracellular cytokine assay.
# [9] = test system: CD4+ T cells with human WT1332-specific TCR gene; assay: WT1332-specific TCR-introduced CD4+ T cells: memory proportion and proliferation on re-stimulation; assay type: cell-based
# Protocol: CD4^+ T cells into which a human WT1332-specific TCR gene was introduced were stimulated with human WT1332, and cultured in the presence of DMSO (control), retinoic acid or an RAR antagonist (LE540). As a result, when the T cells were cultured in the presence of the RAR antagonist, the proportion of memory-type CD4^+ T cells was increased (FIG. 24). Further, when the T cell population cultured in the presence of the RAR antagonist was re-stimulated with PBMC which had been pulsed with human WT1332, and cultured (T cell: 30,000 cells/well; PBMC: 100,000 cells/well; […]
# [10] = test system: human CD4+ T cells transferred into NOG mouse; assay: Reformation ability of cultured T cells in body of immunodeficient mouse; assay type: in vivo; conditions: T cells in spleen 4 weeks after transfer
# Protocol: Human CD4^+CD45RO^+ T cells were stimulated with an anti-CD3/CD28 antibody, cultured in the presence of DMSO (control), retinoic acid or an RAR antagonist (LE540) for 8 days, and then transferred together with human PBMC from which T cells were removed into the body of an immunodeficient mouse lacking T cells, B cells and NK cells (NOG mouse). After 4 weeks, T cells in the spleen of the mouse were analyzed.
# [11] = test system: terminal effector fraction of human WT1332-specific CD4+ T cell clone; assay: Induction of memory T cells from terminal effector T cells; assay type: cell-based
# Excerpt: A terminal effector fraction contained in a human WT1332-specific CD4+ T cell clone derived from a single cell was stimulated with dendritic cells which had been pulsed with human WT1332, and cultured in the presence of DMSO (control), retinoic acid or an RAR antagonist (LE540) for 7 days. Then, the cells were labelled with CFSE, re-stimulated with dendritic cells which had been pulsed with human […], and further cultured in the presence of DMSO (control), retinoic acid or an RAR antagonist (LE540). After culturing for 4 or 6 days, the cells were subjected to an FACS analysis and a ^3H-thymidine incorporation assay (cell proliferation assay).
compound,measurement,setting,value
CC1(C)CC=C(c2cnc3ccccc3c2)c2cc(C(=O)Nc3ccc(C(=O)O)cc3)ccc21 [BMS195614],expression of CD62L,[1],increased
same,proportion of memory T cells (CD62L+CD127+ cells),[1],increased
CC1(C)CCC(C)(C)c2cc(C(=O)Nc3ccc(C(=O)O)cc3)ccc21 [AM580],expression of CD62L,[1],decreased
same,proportion of memory T cells (CD62L+CD127+ cells),[1],decreased
CCCCCCCCc1ccc(-c2ccc(C(=O)O)cc2)cc1 [AC55649],expression of CD62L,[1],decreased
same,proportion of memory T cells (CD62L+CD127+ cells),[1],decreased
"CC1=C(/C=C/C(C)=C/C=C/C(C)=C/C(=O)O)C(C)(C)CCC1 [retinoic acid, all-trans retinoic acid]",proportion of central memory cells,[2],decreased
same,proportion of terminal effector cells,[2],increased
same,appearance frequency of memory T cells,[3],low
same,survival period,[4],shortened
same,expression of CD62L,[1],decreased
same,proportion of memory T cells (CD62L+CD127+ cells),[1],decreased
same,division ability of T cells,[5],decreased
same,proliferation ability of T cells,[5],decreased
same,apoptotic cells,[6],increased
same,living cells,[6],decreased
"RDH10-targeting shRNA: shRNA targeting retinol dehydrogenase 10, sequence SEQ ID NO:18, expressed from a lentivirus vector (GUACACUUCUGGGCCACUGAACUUCCUGUCAUUUAGUGGUCCAGAAGUGUGC)","proportion of central memory cells (CD127+, CD62L+)",[7],increased
same,proportion of terminal effector cells,[7],decreased
CN1c2cc3c(cc2N=C(c2ccc(C(=O)O)cc2)c2ccccc21)C(C)(C)CCC3(C)C [LE135],expression of CD62L,[1],increased
same,proportion of memory T cells (CD62L+CD127+ cells),[1],increased
O=C(O)c1ccc2cc(-c3ccc(O)c(C45CC6CC(CC(C6)C4)C5)c3)ccc2c1 [CD437],expression of CD62L,[1],decreased
same,proportion of memory T cells (CD62L+CD127+ cells),[1],decreased
"CC1=C(/C=C/C(C)=C/C=C/C(C)=C/CO)C(C)(C)CCC1 [retinol, all-trans retinol]",IFN-γ producing cells,[8],increased
same,number of cells,[8],increased
CC1(C)CCC(C)(C)c2cc(C3(c4ccc5cc(C(=O)O)ccc5c4)SCCS3)ccc21 [MM11253],expression of CD62L,[1],increased
same,proportion of memory T cells (CD62L+CD127+ cells),[1],increased
CN1c2cc3c(cc2N=C(c2ccc(C(=O)O)cc2)c2ccc4ccccc4c21)C(C)(C)CCC3(C)C [LE540],appearance frequency of memory T cells,[3],high frequency
same,tumor size (-fold increase relative to day 0),"[4]; day 21, compared with DMSO group and retinoic acid group",significantly small
same,survival period,[4],extended
same,proliferation ability after re-stimulation with WT1332-pulsed PBMC,"[9]; compared with cells cultured with DMSO or retinoic acid, no IL-2",high proliferation ability
same,proportion of memory-type CD4+ T cells,[9]; stimulated with human WT1332,increased
same,ability to proliferate in the body of the immunodeficient mouse,[10],high ability to proliferate
same,differentiation state of T cells in the mouse,[10],undifferentiated
same,expression of CD62L,[1],increased
same,proportion of memory T cells (CD62L+CD127+ cells),[1],increased
same,division ability of T cells,[5],increased
same,proliferation ability of T cells,[5],increased
same,induction of central memory CD4+ T cells from terminal effector CD4+ T cells,[11]; LE540,induced again
same,generation of memory T cells having high division ability and high proliferation ability,[11]; evaluation after re-stimulation,generated
same,apoptotic cells,[6],decreased
same,living cells,[6],increased
